Data set [1] in a line: Blood exposure after intravenous administration in various animal species (summary). The data set is classed as in vivo. The note with it: rat, rabbit, dog. As for the experimental part: (§1) Pharmacokinetics characteristics were examined by administering compound of the present disclosure and the reference compound (BMS-962212) to male SD rats through intravenous injection (IV). Blood was collected at various time points after administration. The blood was anticoagulated with EDTA-K2. Plasma samples were obtained by centrifugation within 30 min after blood collection, and retained at −80° C. The plasma samples were processed to precipitate the proteins and then analyzed by LC-MS/MS.
Pharmacokinetics properties were examined by administering compound of the present disclosure and the reference compound (BMS-962212) to male rabbits through intravenous injection (IV). Blood was collected at various time points after administration. The blood was anticoagulated with EDTA-K2. Plasma samples were obtained by centrifugation, and retained at −80° C. The plasma samples were processed to precipitate the proteins and then analyzed by LC-MS/MS.
Pharmacokinetics properties were examined by administering compound of the present disclosure and the reference compound (BMS-962212) to Beagle dog through intravenous injection (IV). Blood was collected at various time points after administration. The blood was anticoagulated with EDTA-K2. […] The plasma samples were processed to precipitate the proteins and then analyzed by LC-MS/MS.

The target in data set [2] is human coagulation factor XIa (Homo sapiens (Human), UniProt P03951). In words: Inhibition of coagulation factor XIa (fluorogenic substrate, enzyme kinetic mode). The data set is classed as biochemical. As for the experimental part:
The following procedures can be used to determine the in vitro inhibition of human coagulation factor XIa by the compound of the present disclosure, as indicated by IC50.
Enzyme: human coagulation factor XIa; manufacturer: Haemtech;
Substrate: Boc-Ile-Glu-Gly-Arg-AMC Acetate salt; manufacturer: Bachem;
Reaction buffer: 50 mM HEPES, 145 mM NaCl, 5 mM KCl, 0.1% BSA, pH 7.4;
The test compounds were dissolved in reaction buffer at different concentrations. 4 μl of coagulation factor XIa and 4 μl of the test compound were added to a 384 well plate, incubated at room temperature for 10 minutes after mixed thoroughly, and then 4 μl of substrate was added to initiate the reaction. For reading fluorescence signal value, enzyme kinetic mode was used. The wavelength of excitation light was selected to be 380 nm, and the wavelength of emission light was selected to be 460 nm. Read once per 30 seconds, and continuously read 20 cycles. Linear regression analysis of signal value-time was performed during the linear reaction period, and the slope was the reaction rate, and the enzyme activity inhibition rate was calculated according to the following formula. The half inhibitory concentration IC50 values of the compound were fitted using GraphPad Prism 5 software, and results are shown in Table 1. Inhibition rate %=(V0−Vi)/(V0−Vblank)×100.
In the formula: V0 is the reaction rate of the control well (using the same volume of reaction buffer without adding test compound), Vi is the reaction rate of test compound, Vblank is a blank well (using the same volume of reaction buffer without adding either enzyme or test compound).

Data set [3] in a line: Solubility test in pH 7.4 buffer. The data set is classed as physicochemical. The settings on record: buffer (pH 7.4), aqueous buffer, thermodynamic from solid, 25° C. As for the experimental part:
The test compound was dissolved in a buffer (pH 7.4) at room temperature until the solution reached supersaturation. The solution was shaken at 25° C. by a constant temperature mixer for 4 hours, filtered through a 0.45 μm aqueous membrane filter, and the concentration was measured by UPLC. 1 mg of the test compound was accurately weighed, and dissolved in 10 mL volumetric flask as the reference substance. The reference substance was measured using the same process. The solubility of the test compound was calculated according to external standard process, and the results are shown in table 4.

Data set [4] deals with human coagulation factor VIIa (Homo sapiens (Human), UniProt P08709). In words: Determination of inhibition of factor VIIa. The data set is classed as biochemical. As for the experimental part: Enzyme: human coagulation factor VIIa; manufacturer: Haematologic Technologies;
Substrate: Boc-VPR-AMC; R&D System;
Tissue factor: tissue factor F3; manufacturer: Sino Biological;
The test compounds were dissolved in assay buffer (50 mM Hepes, 150 mM NaCl, 5 mM CaCl2, pH 7.4) at a final concentration of 10 μM and 1 μM. Coagulation factor VIIa and tissue factor were mixed at an equimolar concentration. After incubation at 37° C. for 15 minutes, the test compound was further added. Incubation was conducted at room temperature for 10 minutes. Then the substrate (Boc-VPR-AMC) was added to initiate the reaction. For reading fluorescence signal value, enzyme kinetic mode was used. The wavelength of excitation light was 380 nm, and the wavelength of emission light was 460 nm. The IC50 was calculated in a similar manner to experimental Example 1.

The next data set deals with SD rats. The experiment in a line: Single dose toxicity study in SD rats, intravenous infusion. The settings on record: 50, 75, 100, 150, 200 mg/kg, intravenous infusion (2 ml/min).
Data set [5] can be described thus: Pharmacokinetics study in male SD rats, intravenous injection. It is filed as in vivo. As for the experimental part:
as §1
The pharmacokinetic parameters were calculated using WinNonlin 6.3 software by employing a non-compartmental model.

The next data set deals with rabbit plasma. The experiment in a line: Effect on coagulation in vitro (aPTT and PT), rabbit plasma. The note with it: final concentration 10NM (so in the source), n = 3. An excerpt:
aPTT reagent (purchased from Sysmex);
PT reagent (purchased from Sysmex);
The coagulation pathway includes the extrinsic coagulation pathway and the intrinsic coagulation pathway. The parameter associated with the extrinsic coagulation pathway is prothrombin time, expressed as PT; the parameter associated with the intrinsic coagulation pathway is activated partial thromboplatin time, expressed as aPTT.
After anticoagulation, blood of different species (rabbit, human) was subjected to centrifugation. The upper layer of plasma was collected and divided into several aliquots. The test compounds were added to make the final concentration of test compound to be 10NM. Incubation was conducted at 37° C. after mixed thoroughly. Then the samples were put into a coagulation analyzer (Sysmex CA1500, Sysmex, Japan) for the aPTT and PT assays. Blank plasma (without test compound) was used as a reference, and the ratio values of aPTT and PT of all samples and blank plasmas were analyzed, the results are shown in table 3.

[6] abbreviates: male, SD, rat, plasma, rats, 1 mg/kg.

The record followed here is patent US11541049B2, “Tetrahydroisoquinoline derivatives, preparation process and use thereof” (SICHUAN KELUN-BIOTECH BIOPHARMACEUTICAL CO., LTD., priority 2018, dated 2023).

Values after ≈ are worked out from the molar mass of the structure shown. Where only a bound is given, the exact number is not on record here.

Sequence of human coagulation factor VIIa (P08709 whole entry, looked up): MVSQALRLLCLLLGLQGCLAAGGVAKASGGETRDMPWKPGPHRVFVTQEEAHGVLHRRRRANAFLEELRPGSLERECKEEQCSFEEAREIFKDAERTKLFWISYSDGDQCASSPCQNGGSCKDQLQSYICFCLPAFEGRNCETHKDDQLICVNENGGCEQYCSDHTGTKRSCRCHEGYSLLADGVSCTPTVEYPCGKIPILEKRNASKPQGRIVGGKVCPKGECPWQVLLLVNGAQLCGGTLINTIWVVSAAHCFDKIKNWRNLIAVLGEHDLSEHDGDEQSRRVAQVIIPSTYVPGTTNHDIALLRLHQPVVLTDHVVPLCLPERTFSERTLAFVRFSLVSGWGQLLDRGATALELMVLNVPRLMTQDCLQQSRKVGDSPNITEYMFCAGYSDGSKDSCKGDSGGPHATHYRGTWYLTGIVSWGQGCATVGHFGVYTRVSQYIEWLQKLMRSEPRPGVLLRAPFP
Sequence of human coagulation factor VIIa (P08709 whole entry, looked up): as above
Sequence of human coagulation factor VIIa (P13726 whole entry partner, looked up): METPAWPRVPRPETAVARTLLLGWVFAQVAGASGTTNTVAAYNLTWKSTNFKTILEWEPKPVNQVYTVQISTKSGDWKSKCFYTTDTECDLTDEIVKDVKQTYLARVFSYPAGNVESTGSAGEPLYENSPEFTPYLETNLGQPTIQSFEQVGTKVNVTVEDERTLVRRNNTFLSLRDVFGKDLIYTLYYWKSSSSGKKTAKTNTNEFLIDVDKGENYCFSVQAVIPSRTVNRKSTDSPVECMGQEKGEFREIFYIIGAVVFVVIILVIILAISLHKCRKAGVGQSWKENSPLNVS
Sequence of human coagulation factor XIa (P03951 388-625): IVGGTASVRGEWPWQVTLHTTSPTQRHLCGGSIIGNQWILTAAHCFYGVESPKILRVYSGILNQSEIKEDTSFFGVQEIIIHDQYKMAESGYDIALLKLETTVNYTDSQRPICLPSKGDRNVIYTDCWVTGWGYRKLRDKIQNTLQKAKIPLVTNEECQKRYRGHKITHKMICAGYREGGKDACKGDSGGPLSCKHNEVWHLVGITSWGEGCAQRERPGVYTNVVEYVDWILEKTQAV
Sequence of human coagulation factor XIa (P03951 19-387): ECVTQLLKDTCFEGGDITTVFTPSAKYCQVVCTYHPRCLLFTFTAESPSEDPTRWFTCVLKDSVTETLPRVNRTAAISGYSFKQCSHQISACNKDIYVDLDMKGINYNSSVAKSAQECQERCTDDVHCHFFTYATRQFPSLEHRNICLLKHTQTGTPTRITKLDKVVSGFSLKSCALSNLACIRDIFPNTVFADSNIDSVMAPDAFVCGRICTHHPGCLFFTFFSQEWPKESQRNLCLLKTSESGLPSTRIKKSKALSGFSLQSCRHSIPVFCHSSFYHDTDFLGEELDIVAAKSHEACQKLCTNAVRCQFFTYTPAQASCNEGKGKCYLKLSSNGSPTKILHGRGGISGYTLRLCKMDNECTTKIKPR

As for `N[C@@H](CCCCNC(=O)CN1CC=C(c2cccc3c2CCN(C(=O)[C@H]2CC(c4cccc(Cl)c4F)=NO2)[C@@H]3C(=O)Nc2ccc(C(=O)O)cc2)CC1)C(=O)O` [Example 5, 4-((S)-5-(1-(2-(((S)-5-amino-5-carboxypentyl)amino)-2-oxoethyl)-1,2,3,6-tetrahydropyridin-4-yl)-2-((R)-3-(3-chloro-2-fluorophenyl)-4,5-dihydroisoxazole-5-carbonyl)-1,2,3,4-tetrahydroisoquinoline-1-carboxamido)benzoic acid], the “exposure in blood relative to that of BMS-962212” value in data set [1] is reported as 3-25 times. Also, half-maximal inhibition in data set [2] (IC50) required 0.16 ± 0.02 nM. In data set [3], the solubility (commonly how much of the substance goes into solution per volume) at 4 h was 10.8 mg/mL (≈ 13.7 mM). Besides, the “inhibitory effect on coagulation factor VIIa (in words)” value in data set [4] was “no significant inhibitory effect”. For the same molecule, the IC50 – broadly, the concentration that gives 50% inhibition – in data set [4] (tested at final concentration of 10 μM and 1 μM, with tissue factor) is above 10000 nM. The “Single dose toxicity study in SD rats: observation” value in the data set with SD rats was “No abnormality was found”. Besides, in data set [5] (setting [6]), the AUC(0-inf) (usually total exposure, with the tail of the curve extrapolated) turned out to be 2890 ± 473 ng·h/mL; the AUC(0-t) (in general, exposure summed from dosing to a finite time, without extrapolation to infinity) turned out to be 2890 ± 473 ng·h/mL; the highest level (Cmax) was 2990 ± 629 ng/mL; the clearance (in general, the volume of plasma or blood freed of the substance per unit of time) turned out to be 5.88 ± 1.07 mL/min/kg. Also, in data set [5] (setting [6]), the half-life (in general, the time in which the quantity being followed falls by half) is 46.8 ± 3.6 min. In data set [5] (rat plasma, 1 mg/kg vs 5 mg/kg reference, dosage normalized), the “AUClast relative to that of the reference compound” value is recorded as 3.53 times. Further, the “T1/2 relative to that of the reference compound” value in data set [5] (rat, 1 mg/kg vs 5 mg/kg reference) came to 4.11 times. In addition, the “Cmax relative to that of the reference compound” value in data set [5] (rat, 1 mg/kg vs 5 mg/kg reference, dosage normalized) is listed as 1.35 times. Also, in the data set with rabbit plasma, the “Ratio of PT to that of blank plasma” value is reported as 1.00 and the “Ratio of aPTT to that of blank plasma” value was 1.84.
